Data as given in patent publication US10772840B2 (Charleston Laboratories, Inc., priority 2016, dated 2020).
Structures can show the parent of a compound that is named as a salt.

Test: Impurity profile (related substances) by HPLC, initial and after one month at 40° C. (stability study)
Type: physicochemical
Conditions: HPLC percent area
Experimental: The percentages of related substances were measured using an HPLC.
Stock promethazine HCl selectivity solution was prepared by accurately weighing about 2 mg of EP promethazine for peak identification CRS and transferring into 1 mL of diluent (prepared by mixing 750 mL of mobile phase A and 250 mL of acetonitrile), followed by vortexing to dissolve.
Ten capsules were randomly selected and weighed. The contents of the ten capsules were emptied into a 500 mL volumetric flask. 300 mL of diluent was added and the mixture was sonicated in an ice bath for 40 minutes or until completely disintegrated with intermittent swirling. The temperature was equilibrated to room temperature and more diluent was added to volume.
Promethazine HCl impurity sample solution: stock solution sample was filtered through a 0.45 μm PVDF membrane, syringe filter or a 0.45 μm PTFE w/GMF membrane, syringe filter discarding the first 5 mL and collecting approximately 20 mL into an appropriate glass container. Fill an HPLC vial with the filtrate
The RT of the promethazine in the promethazine HCl selectivity solution is between 44.1 and 53.9.
Mobile Phase B: 0.2% TFA in Acetonitrile, which was prepared by mixing well 2.0 ml of trifluoroacetic acid to 1 L of acetonitrile; and Gradient used was as follows in Table 15.
All known and unknown impurities were calculated via percent area as follow:
[formula] Where: • Ru=Peak area of related substance in the sample solution • Rt=Sum of peak area of promethazine or sumatriptan and all related substances areas corresponding to respective peak in sample solution • RRF=Relative Response Factor for related substances
The formulation was examined for its stability after one month at 40° C.

Impurity percentages, all related substances combined (in a capsule stored at 40° C. for 1 month): 0.2%
Impurity percentages, all related substances combined (in a capsule, initial (before storage)): 0.3%
Structure (SMILES): CC(CN1c2ccccc2Sc2ccccc21)N(C)C (centres unmarked) [Promethazine, Promethazine Hydrochloride]
